What was measured:
RORγ-LBD = biological target: T1, RORγ-LBD (Homo sapiens, UniProt P51449); assay: RORγ-Ligand Binding Domain (LBD) TR-FRET Assay; format: biochemical; settings: RORγ-LBD TR-FRET
T1 construct: made in house; host or cells: SF9 cells (baculovirus); used as diluted lysate
T1 sequence (P51449 269-508 limits assumed): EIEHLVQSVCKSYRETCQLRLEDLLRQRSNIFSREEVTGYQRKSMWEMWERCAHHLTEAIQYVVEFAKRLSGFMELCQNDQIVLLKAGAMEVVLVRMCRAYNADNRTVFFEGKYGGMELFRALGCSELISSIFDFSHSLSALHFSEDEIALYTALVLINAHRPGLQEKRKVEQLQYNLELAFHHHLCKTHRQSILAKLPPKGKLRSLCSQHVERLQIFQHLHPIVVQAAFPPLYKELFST
Outline: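 This TR-FRET coactivator assay pairs baculovirus-expressed His-RORγ-LBD (~3 nM final) with biotin-SRC1 LXXLL peptide at 200 nM final in pH 7.0 Tris/KCl/EDTA/DTT/BSA buffer.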

Gal4-RORγ-LBD = biological target: T2, Gal4-RORγ-LBD (Homo sapiens, UniProt P51449); assay: Gal4-RORγ Luciferase Reporter Assay in HEK-293T Cells; format: cell-based; settings: HEK-293 cells, luciferase reporter, with ursolic acid
T2 construct: expressed in transfected cells
T2 sequence (P51449 269-508 limits assumed): T1 sequence (P51449 269-508 limits assumed)
Outline: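 HEK-293 cells were co-transfected with Gal4-RORγ-LBD and a Gal4-luciferase reporter, then exposed overnight at 37 °C to compounds with […] ursolic acid present (0.2% DMSO). Luminescence was read with One-Glo after 10 min at RT, untreated signal was set as 100, and Max Response was taken as the upper plateau of a 4-parameter logistic fit.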

SMILES | EC50 (RORγ-LBD) [nM] | EC50 (Gal4-RORγ-LBD) [nM]
CCOc1ncc(C(F)(F)F)cc1S(=O)(=O)N1C[C@H](CCC(=O)O)Oc2ccc(/C=C/c3c(Cl)cccc3C(F)F)cc21 [Example 89EJ, (S,E)-3-(6-(2-chloro-6-(difluoromethyl)styryl)-4-((2-ethoxy-5-(trifluoromethyl)-pyridin-3-yl)sulfonyl)-3,4-dihydro-2H-benzo[b][1,4]-oxazin-2-yl)propanoic acid] | < 500 | < 500
CCOc1ncc(C(F)(F)F)cc1S(=O)(=O)N1C[C@H](CCC(=O)OC)Oc2ccc(/C=C/c3c(Cl)cccc3C(F)F)cc21 [Example 89EK, methyl (S,E)-3-(6-(2-chloro-6-(difluoromethyl)styryl)-4-((2-ethoxy-5-(trifluoromethyl)-pyridin-3-yl)sulfonyl)-3,4-dihydro-2H-benzo[b][1,4]-oxazin-2-yl)propanoate] | < 500 | 500 to 5000
COC(=O)CC[C@H]1CN(S(=O)(=O)c2cc(C(F)(F)F)cnc2OCCO)c2cc(/C=C/c3c(Cl)cccc3C(F)F)ccc2O1 [Example 89EL, methyl (S,E)-3-(6-(2-chloro-6-(difluoromethyl)styryl)-4-((2-(2-hydroxyethoxy)-5-(trifluoromethyl)pyridin-3-yl)sulfonyl)-3,4-dihydro-2H-benzo[b][1,4]oxazin-2-yl)propanoate] | < 500 | < 500
O=C(O)CC[C@H]1CN(S(=O)(=O)c2cc(C(F)(F)F)cnc2OCCO)c2cc(/C=C/c3c(Cl)cccc3C(F)F)ccc2O1 [Example 89EM, (S,E)-3-(6-(2-chloro-6-(difluoromethyl)styryl)-4-((2-(2-hydroxyethoxy)-5-(trifluoromethyl)pyridin-3-yl)sulfonyl)-3,4-dihydro-2H-benzo[b][1,4]oxazin-2-yl)propanoic acid] | < 500 | < 500
O=C(O)CC[C@H]1CN(S(=O)(=O)c2cccc(C(F)(F)F)c2)c2cc(/C=C/c3c(Cl)cccc3C(F)F)ccc2O1 [Example 89EN, (S,E)-3-(6-(2-chloro-6-(difluoromethyl)styryl)-4-((3-(trifluoromethyl)phenyl)sulfonyl)-3,4-dihydro-2H-benzo[b][1,4]oxazin-2-yl)propanoic acid] | < 500 | < 500
O=C(O)CC[C@H]1CN(S(=O)(=O)c2cccc(C(F)F)c2)c2cc(/C=C/c3c(Cl)cccc3C(F)F)ccc2O1 [Example 89EP, (S,E)-3-(6-(2-chloro-6-(difluoromethyl)styryl)-4-((3-(difluoromethyl)phenyl)-sulfonyl)-3,4-dihydro-2H-benzo[b][1,4]oxazin-2-yl)propanoic acid] | < 500 | < 500
COC(=O)CC[C@H]1CN(S(=O)(=O)c2cccc(C(F)F)c2)c2cc(/C=C/c3c(Cl)cccc3C(F)F)ccc2O1 [Example 89EQ, methyl (S,E)-3-(6-(2-chloro-6-(difluoromethyl)styryl)-4-((3-(difluoromethyl)phenyl)-sulfonyl)-3,4-dihydro-2H-benzo[b][1,4]oxazin-2-yl)propanoate] | < 500 | < 500
COc1cccc(C(F)(F)F)c1/C=C/c1ccc2c(c1)N(S(=O)(=O)c1cccc(C(F)(F)F)c1)C[C@H](CCC(=O)O)O2 [Example 89ER, (S,E)-3-(6-(2-methoxy-6-(trifluoromethyl)styryl)-4-((3-(trifluoromethyl)phenyl)-sulfonyl)-3,4-dihydro-2H-benzo[b][1,4]oxazin-2-yl)propanoic acid] | < 500 | < 500
COC(=O)CC[C@H]1CN(S(=O)(=O)c2cccc(C(F)(F)F)c2)c2cc(/C=C/c3c(OC)cccc3C(F)(F)F)ccc2O1 [Example 89ES, methyl (S,E)-3-(6-(2-methoxy-6-(trifluoromethyl)styryl)-4-((3-(trifluoromethyl)phenyl)-sulfonyl)-3,4-dihydro-2H-benzo[b][1,4]oxazin-2-yl)propanoate] | < 500 | 500 to 5000
CCOc1ncc(C(F)(F)F)cc1S(=O)(=O)N1C[C@H](CCC(=O)O)Oc2ccc(/C=C/c3c(OC)cccc3C(F)(F)F)cc21 [Example 89ET, (S,E)-3-(4-((2-ethoxy-5-(trifluoromethyl)pyridin-3-yl)sulfonyl)-6-(2-methoxy-6-(trifluoromethyl)styryl)-3,4-dihydro-2H-benzo[b][1,4]-oxazin-2-yl)propanoic acid] | < 500 | < 500
CCOc1ncc(C(F)(F)F)cc1S(=O)(=O)N1C[C@H](CCC(=O)OC)Oc2ccc(/C=C/c3c(OC)cccc3C(F)(F)F)cc21 [Example 89EU, methyl (S,E)-3-(4-((2-ethoxy-5-(trifluoromethyl)pyridin-3-yl)sulfonyl)-6-(2-methoxy-6-(trifluoromethyl)styryl)-3,4-dihydro-2H-benzo[b][1,4]-oxazin-2-yl)propanoate] | < 500 | 500 to 5000
CC(F)(F)c1cccc(Cl)c1/C=C/c1ccc2c(c1)N(S(=O)(=O)c1cccc(C(F)(F)F)c1)C[C@H](CCC(=O)O)O2 [Example 89EV, (S,E)-3-(6-(2-chloro-6-(1,1-difluoroethyl)styryl)-4-((3-(trifluoromethyl)phenyl)-sulfonyl)-3,4-dihydro-2H-benzo[b][1,4]oxazin-2-yl)propanoic acid] | < 500 | 5000 to 10000
COC(=O)CC[C@H]1CN(S(=O)(=O)c2cccc(C(F)(F)F)c2)c2cc(/C=C/c3c(Cl)cccc3C(C)(F)F)ccc2O1 [Example 89EW, methyl (S,E)-3-(6-(2-chloro-6-(1,1-difluoroethyl)styryl)-4-((3-(trifluoromethyl)phenyl)-sulfonyl)-3,4-dihydro-2H-benzo[b][1,4]oxazin-2-yl)propanoate] | < 500 | < 500
C[C@H]1CN(S(=O)(=O)c2cc(C(F)(F)F)cnc2OCCO)c2cc(/C=C/c3c(Cl)cccc3C(F)(F)F)ccc2O1 [Example 89EX, (S,E)-2-((3-((6-(2-chloro-6-(trifluoromethyl)styryl)-2-methyl-2,3-dihydro-4H-benzo[b][1,4]oxazin-4-yl)sulfonyl)-5-(trifluoromethyl)-pyridin-2-yl)oxy)ethan-1-ol] | < 500 | 500 to 5000
COc1cccc(Cl)c1/C=C/c1ccc2c(c1)N(S(=O)(=O)c1cccc(C(F)(F)F)c1)C[C@H](CCC(=O)O)O2 [Example 89EY, (S,E)-3-(6-(2-chloro-6-methoxystyryl)-4-((3-(trifluoromethyl)phenyl)-sulfonyl)-3,4-dihydro-2H-benzo[b][1,4]oxazin-2-yl)propanoic acid] | < 500 | 500 to 5000
COC(=O)CC[C@H]1CN(S(=O)(=O)c2cccc(C(F)(F)F)c2)c2cc(/C=C/c3c(Cl)cccc3OC)ccc2O1 [Example 89EZ, methyl (S,E)-3-(6-(2-chloro-6-methoxystyryl)-4-((3-(trifluoromethyl)phenyl)-sulfonyl)-3,4-dihydro-2H-benzo[b][1,4]oxazin-2-yl)propanoate] | < 500 | < 500
CCOc1ncc(C(F)(F)F)cc1S(=O)(=O)N1C[C@H](CCC(=O)O)Oc2ccc(/C=C/c3c(Cl)cccc3OC)cc21 [Example 89FA, (S,E)-3-(6-(2-chloro-6-methoxystyryl)-4-((2-ethoxy-5-(trifluoromethyl)pyridin-3-yl)sulfonyl)-3,4-dihydro-2H-benzo[b][1,4]oxazin-2-yl)propanoic acid] | < 500 | < 500
CCOc1ncc(C(F)(F)F)cc1S(=O)(=O)N1C[C@H](CCC(=O)OC)Oc2ccc(/C=C/c3c(Cl)cccc3OC)cc21 [Example 89FB, methyl (S,E)-3-(6-(2-chloro-6-methoxystyryl)-4-((2-ethoxy-5-(trifluoromethyl)pyridin-3-yl)sulfonyl)-3,4-dihydro-2H-benzo[b][1,4]oxazin-2-yl)propanoate] | < 500 | 500 to 5000
O=C(O)CC[C@H]1CN(S(=O)(=O)c2cc(C(F)(F)F)cnc2OCCCO)c2cc(/C=C/c3c(F)cccc3Cl)ccc2O1 [Example 89FC, (S,E)-3-(6-(2-chloro-6-fluorostyryl)-4-((2-(3-hydroxypropoxy)-5-(trifluoromethyl)pyridin-3-yl)sulfonyl)-3,4-dihydro-2H-benzo[b][1,4]-oxazin-2-yl)propanoic acid] | < 500 | 500 to 5000
COC(=O)CC[C@H]1CN(S(=O)(=O)c2cc(C(F)(F)F)cnc2OCCCO)c2cc(/C=C/c3c(F)cccc3Cl)ccc2O1 [Example 89FD, methyl (S,E)-3-(6-(2-chloro-6-fluorostyryl)-4-((2-(3-hydroxypropoxy)-5-(trifluoromethyl)pyridin-3-yl)sulfonyl)-3,4-dihydro-2H-benzo[b][1,4]-oxazin-2-yl)propanoate] | < 500 | 500 to 5000
CCOc1nn(CC)cc1S(=O)(=O)N1C[C@H](CCC(=O)O)Oc2ccc(/C=C/c3c(Cl)cccc3C(C)(F)F)cc21 [Example 89FE, (S,E)-3-(6-(2-chloro-6-(1,1-difluoroethyl)styryl)-4-((3-ethoxy-1-ethyl-1H-pyrazol-4-yl)sulfonyl)-3,4-dihydro-2H-benzo[b][1,4]oxazin-2-yl)propanoic acid] | < 500 | < 500

— patent publication US9896441B2 (Lycera Corporation, priority 2014, dated 2018)
